The results in this text go back to ChEMBL document CHEMBL5247583, “Synthesis and evaluation of small molecule inhibitors of LSD1 for use against MYCN-expressing neuroblastoma” (Eur J Med Chem, 2022).

Series [1] has as its system IMR-32. Nature of the series: Cytotoxicity against human IMR-32 cells assessed as lethal concentration measured after 24 hrs in presence of bortezomib by cell titer glo assay. The class given is functional. The settings on record: read-out: LC50 (the source's name). In general terms: Cellular ATP, detected with luciferase, serves as a proxy for viable cell number.
The subject of series [2] is CHP-134. Nature of the series: Cytotoxicity against human CHP-134 cells assessed as lethal concentration measured after 24 hrs in presence of bortezomib by cell titer glo assay. It is filed as functional. The settings on record: read-out: LC50 (the source's name).
Series [3] has as its system IMR-32. Nature of the series: Cytotoxicity against human IMR-32 cells assessed as combination index measured after 24 hrs by cell titer glo assay. The class given is functional.
Series [4] relates to IMR-32. The series is described as follows: Cytotoxicity against human IMR-32 cells assessed as lethal concentration measured after 24 hrs by cell titer glo assay. The settings on record: read-out: LC50 (the source's name). The class given is functional.
Series [5] deals with CHP-134. Nature of the series: Cytotoxicity against human CHP-134 cells assessed as lethal concentration measured after 24 hrs by cell titer glo assay. It is filed as functional. The settings on record: read-out: LC50 (the source's name).
Series [6] addresses T1, MAO-A (Amine oxidase [flavin-containing] A) (Homo sapiens, UniProt P21397).
T1 sequence (P21397 whole entry): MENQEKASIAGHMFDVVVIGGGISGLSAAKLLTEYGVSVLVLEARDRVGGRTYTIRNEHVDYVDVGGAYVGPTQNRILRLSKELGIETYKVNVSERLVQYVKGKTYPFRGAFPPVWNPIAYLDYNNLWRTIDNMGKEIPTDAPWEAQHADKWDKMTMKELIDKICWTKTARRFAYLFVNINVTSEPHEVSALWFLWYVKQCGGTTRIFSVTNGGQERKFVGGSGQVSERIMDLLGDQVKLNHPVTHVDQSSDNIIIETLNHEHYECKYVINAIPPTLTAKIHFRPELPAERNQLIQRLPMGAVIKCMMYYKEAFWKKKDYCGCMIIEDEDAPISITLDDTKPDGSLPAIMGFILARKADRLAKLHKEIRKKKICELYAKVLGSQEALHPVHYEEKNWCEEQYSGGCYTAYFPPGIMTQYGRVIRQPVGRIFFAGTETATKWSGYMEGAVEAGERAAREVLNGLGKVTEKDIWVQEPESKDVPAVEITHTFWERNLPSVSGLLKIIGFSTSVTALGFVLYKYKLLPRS
Nature of the series: Inhibition of recombinant MAO-A (unknown origin) at 1 uM using luciferin as substrate preincubated for 1 hr followed by substrate addition measured after 20 min by microplate reader analysis relative to control. The settings on record: probe luciferin, time 80 min.

Series [7] relates to CHP-134. Nature of the series: Cytotoxicity against human CHP-134 cells measured after 24 hrs in presence of bortezomib by cell titer glo assay. The class given is functional, cell-based.
The test system of series [8] is CHP-134. Nature of the series: Cytotoxicity against human CHP-134 cells assessed lethal concentration measured after 72 hrs by cell titer glo assay. The settings on record: read-out: LC50 (the source's name). It is filed as functional.
Series [9] addresses Spermine oxidase (Homo sapiens) (UniProt Q9NWM0). Nature of the series: Inhibition of SMOX (unknown origin) at 50 uM using spermine as substrate preincubated for 1 hr followed by substrate addition and measured after 20 mins by luminometer analysis relative to control. The settings on record: time 80.0 min.
Series [10] concerns IMR-32. The series is described as follows: Upregulation of LSD1 expression level in human IMR-32 cells by DAPI staining based analysis. It is filed as functional, cell-based.
Series [11] has as its system IMR-32. Nature of the series: Cytotoxicity against human IMR-32 cells assessed lethal concentration measured after 72 hrs by cell titer glo assay. It is filed as functional. The settings on record: read-out: LC50 (the source's name).

Activity calls are given as the source filed them. No cut-off for these calls is given here.

Chain of Spermine oxidase (Homo sapiens) (Q9NWM0 whole entry): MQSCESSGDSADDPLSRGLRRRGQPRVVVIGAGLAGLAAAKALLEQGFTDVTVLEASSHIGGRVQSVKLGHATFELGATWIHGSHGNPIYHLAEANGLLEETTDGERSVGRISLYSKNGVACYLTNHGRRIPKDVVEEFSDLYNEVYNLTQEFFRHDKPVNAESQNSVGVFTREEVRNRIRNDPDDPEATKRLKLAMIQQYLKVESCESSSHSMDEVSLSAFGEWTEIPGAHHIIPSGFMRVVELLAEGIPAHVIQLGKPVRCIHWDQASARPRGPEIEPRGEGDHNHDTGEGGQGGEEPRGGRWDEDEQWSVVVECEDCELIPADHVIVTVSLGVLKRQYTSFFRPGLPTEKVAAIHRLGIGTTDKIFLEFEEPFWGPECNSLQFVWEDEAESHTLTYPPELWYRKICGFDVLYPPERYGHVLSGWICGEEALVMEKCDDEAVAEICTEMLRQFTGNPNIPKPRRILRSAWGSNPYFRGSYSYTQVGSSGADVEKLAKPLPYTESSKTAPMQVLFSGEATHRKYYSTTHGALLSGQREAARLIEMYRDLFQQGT

Take `COc1ccc(C2=C(c3ccc(C#N)c(F)c3)N=C(N3CCC(N)CC3)N(C)C2)cc1F`: the CC50 amounted to 8.4 nM in series [1] and 16 nM in [2].

Regarding `CC(C)C[C@H](NC(=O)[C@H](Cc1ccccc1)NC(=O)c1cnccn1)B(O)O` [BORTEZOMIB], in series [3], the CI is recorded as 0.37. Also, the CC50 in series [4] is 19 nM; in series [5], 106 nM.

For `C#CCN(C)CCCOc1ccc(Cl)cc1Cl` [CLORGILINE], the inhibition – broadly, the share of the control response that was lost under treatment – at 20 min, 1 µM in [6] is 92%.

As for `O=S(=O)(Nc1ccc(Br)cc1-c1nnn[nH]1)c1ccc(-c2ccc(Cl)cc2)cc1`, the result in series [7] and in series [10] was Active. Also, the CC50 was determined as 7 nM in series [1], 11600 nM in series [8], 60 nM in [2] and 3100 nM in [11]. This compound also showed an inhibition in series [9] of 12%.
